Assay results reported in patent publication US10543212B2, “Substituted amines for treating cardiac diseases” (Cardurion Pharmaceuticals, LLC, priority 2017, dated 2020).
Structures can show the parent of a compound that is named as a salt.

Target: T1, Full-length, GST-tagged, human CaMKIIδ (Homo sapiens, UniProt Q13557)
T1 construct: Full-Length, Glutathione-S-Transferase(GST)-Tagged, Human CaMKIIδ was purchased from Carna Biosciences; purchased Carna Biosciences 02-111
Assay: CaMKIIδ binding assay (TR-FRET with BODIPY-labeled probe ligand)
Method: In vitro CaMKIIδ inhibitory activity was evaluated by a binding assay.
Full-Length, Glutathione-S-Transferase(GST)-Tagged, Human CaMKIIδ was purchased from Carna Biosciences (product #02-111, Kobe, Japan). Full-length bovine calmodulin was purchased from Wako Pure Chemical Industries (Osaka, Japan). Terbium-labeled anti-GST antibody (Tb-anti-GST Ab) was purchased from Life Technologies (Carlsbad, Calif., USA). Boron-dipyrromethene (BODIPY)-labeled probe ligand was synthesized as described below.
Time-Resolved Fluorescence Resonance Energy Transfer (TR-FRET) Assay
All assays were conducted using 384-well, white, flat-bottomed plates (product #784075, Greiner Bio-One, Frickenhausen, Germany) in kinase assay buffer, which consists of 50 mM HEPES pH 7.6, 10 mM MgCl2, 1 mM EGTA, 0.01% Brig-35, 0.1 mM DTT). The fluorescent probe ligand was added at a final concentration of 300 nM to solutions containing 0.21 nM Tb-anti-GST Ab, 1 mM CaCl2), 10 μg/mL calmodulin, and 0.5 nM GST-tagged CaMKIIδ. After shaded incubation of the protein-probe mixture on ice for 30 min, the premix was dispensed in the assay plate including test inhibitors with 4 fold dilution series of eight concentrations. After 1 hr incubation at room temperature, TR-FRET signals were measured in duplicate using an EnVision microplate reader (Perkin Elmer, Waltham, Mass., USA). The solution in each well was excited with a laser (λ=340 nm) reflected by a dichroic mirror (D400/D505 (Perkin Elmer) through an excitation filter (UV (TRF) 340, (Perkin Elmer)), and fluorescence from Tb and BODIPY were detected through two emission filters (CFP 495 (Perkin Elmer) for Tb, Emission 520 (Perkin Elmer) for BODIPY).
The percentage of inhibition of test compounds was calculated according to equation (1) Inhibition (%)=100×([…]−T)/(μH−μL) (1)
Where T is the value of the wells containing test compounds and μH and μL are the mean values of the 0% and 100% inhibition control wells, respectively. The values of the 0 and 100% controls were the signals obtained in the absence and presence of 3 μM its parent compound, respectively. The half maximal inhibitory concentration (IC50) of test compounds was calculated by fitting the data with the logistic equation using XLfit (IDBS, Guildford, UK). The IC50 was classified according to the following activity ranks.

[1] = Table 2, activity class for CaMKIIδ
[2] = Table 2, CaMKIIδ binding assay, activity given as class A/B/C
[3] = CaMKIIδ binding assay, results of Table 2

T1 sequence (Q13557 1-478 isoform Q13557-12): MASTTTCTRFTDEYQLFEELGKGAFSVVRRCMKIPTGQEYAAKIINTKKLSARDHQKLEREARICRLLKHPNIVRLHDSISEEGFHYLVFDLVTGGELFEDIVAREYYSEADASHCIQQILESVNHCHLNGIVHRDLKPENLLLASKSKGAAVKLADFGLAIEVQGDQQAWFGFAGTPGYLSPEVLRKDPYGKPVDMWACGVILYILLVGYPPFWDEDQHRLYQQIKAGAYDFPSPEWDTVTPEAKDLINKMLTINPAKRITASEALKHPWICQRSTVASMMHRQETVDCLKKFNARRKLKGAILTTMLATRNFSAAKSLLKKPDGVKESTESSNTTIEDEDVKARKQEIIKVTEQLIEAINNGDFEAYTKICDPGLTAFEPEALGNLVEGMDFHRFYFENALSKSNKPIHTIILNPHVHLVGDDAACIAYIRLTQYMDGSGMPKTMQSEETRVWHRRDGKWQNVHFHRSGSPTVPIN

| Structure (SMILES) | IC50 [1] [nM] | IC50 [2] [nM] | also measured |
| --- | --- | --- | --- |
| COc1cc(N2CCNCC2)ncc1Nc1ncc(-c2ccc(Cl)c(O[C@@H](C)Cn3cnnn3)c2)cn1 [Example 622, (S)-5-(3-((1-(1H-tetrazol-1-yl)propan-2-yl)oxy)-4-chlorophenyl)-N-(4-methoxy-6-(piperazin-1-yl)pyridin-3-yl)pyrimidin-2-amine] | < 10 |  |  |
| C[C@@H](Cn1cnnn1)Oc1cc(-c2cnc(Nc3cn(CC4CCCCO4)nc3C(F)(F)F)nc2)ccc1Cl (stereo partly drawn) [Example 712, 5-(3-(((S)-1-(1H-tetrazol-1-yl)propan-2-yl)oxy)-4-chlorophenyl)-N-(1-((tetrahydro-2H-pyran-2-yl)methyl)-3-(trifluoromethyl)-1H-pyrazol-4-yl)pyrimidin-2-amine] | 10 to 100 |  |  |
| C[C@@H](Cn1cnnn1)Oc1cc(-c2cnc(Nc3cn([C@H]4CC[C@@H](N5CCOCC5)CC4)nc3OCC(F)(F)F)nc2)ccc1F [Example 814, 5-(3-(((S)-1-(1H-tetrazol-1-yl)propan-2-yl)oxy)-4-fluorophenyl)-N-(1-(cis-4-morpholinocyclohexyl)-3-(2,2,2-trifluoroethoxy)-1H-pyrazol-4-yl)pyrimidin-2-amine] |  | 10 to 100 |  |
| C[C@@H](Cn1cnnn1)Oc1cc(-c2cnc(Nc3cn(C4CCOCC4)nc3C(F)(F)F)nc2)ccc1Cl [Example 645, (S)-5-(3-((1-(1H-tetrazol-1-yl)propan-2-yl)oxy)-4-chlorophenyl)-N-(1-(tetrahydro-2H-pyran-4-yl)-3-(trifluoromethyl)-1H-pyrazol-4-yl)pyrimidin-2-amine] | 10 to 100 |  |  |
| COc1cnc(C2CCOCC2)cc1Nc1ncc(-c2ccc(Cl)c(O[C@@H](C)Cn3cnnn3)c2)cn1 [Example 517, (S)-5-(3-((1-(1H-tetrazol-1-yl)propan-2-yl)oxy)-4-chlorophenyl)-N-(5-methoxy-2-(tetrahydro-2H-pyran-4-yl)pyridin-4-yl)pyrimidin-2-amine] |  |  | IC50 [3]: 10 to 100 nM |
| COc1cc(N2CCN(C3CCOCC3)C[C@@H]2C)ccc1Nc1ncc(-c2ccc(Cl)c(O[C@@H](C)Cn3cnnn3)c2)cn1 [Example 654, 5-(3-(((S)-1-(1H-tetrazol-1-yl)propan-2-yl)oxy)-4-chlorophenyl)-N-(2-methoxy-4-((S)-2-methyl-4-(tetrahydro-2H-pyran-4-yl)piperazin-1-yl)phenyl)pyrimidin-2-amine] | < 10 |  |  |
| C[C@@H](Cn1cc(F)cn1)Oc1cc(-c2cnc(Nc3cn([C@H]4CC[C@@H](N5CCOCC5)CC4)nc3OCC(F)(F)F)nc2)ccc1C#N [Example 829, 2-(((S)-1-(4-fluoro-1H-pyrazol-1-yl)propan-2-yl)oxy)-4-(2-((1-(cis-4-morpholinocyclohexyl)-3-(2,2,2-trifluoroethoxy)-1H-pyrazol-4-yl)amino)pyrimidin-5-yl)benzonitrile] |  | 10 to 100 |  |
| C[C@@H](Cn1cnnn1)Oc1cc(-c2cnc(Nc3cn(C(C)(C)CO)nc3OCC(F)(F)F)nc2)ccc1Cl [Example 883, (S)-2-(4-((5-(3-((1-(1H-tetrazol-1-yl)propan-2-yl)oxy)-4-chlorophenyl)pyrimidin-2-yl)amino)-3-(2,2,2-trifluoroethoxy)-1H-pyrazol-1-yl)-2-methylpropan-1-ol] |  |  | IC50 (CaMKIIδ binding assay, activity class per Table 2): < 10 nM |
| C[C@@H](Cn1cnnn1)Oc1cc(-c2cnc(Nc3cn([C@H]4CC[C@H](N5CCOCC5)CC4)nc3OCC(F)(F)F)nc2)ccc1C#N [Example 817, 2-(((S)-1-(1H-tetrazol-1-yl)propan-2-yl)oxy)-4-(2-((1-(trans-4-morpholinocyclohexyl)-3-(2,2,2-trifluoroethoxy)-1H-pyrazol-4-yl)amino)pyrimidin-5-yl)benzonitrile hydrochloride] |  | < 10 |  |
| C[C@@H](Cn1cnnn1)Oc1cc(-c2cnc(Nc3cn(C4CCNCC4)nc3OCC(F)F)nc2)ccc1Cl [Example 791, (S)-5-(3-((1-(1H-tetrazol-1-yl)propan-2-yl)oxy)-4-chlorophenyl)-N-(3-(2,2-difluoroethoxy)-1-(piperidin-4-yl)-1H-pyrazol-4-yl)pyrimidin-2-amine] |  | < 10 |  |
| C[C@@H](Cn1cnnn1)Oc1cc(-c2cnc(Nc3cn([C@@H]4CCCC[C@H]4O)nc3C(F)(F)F)nc2)ccc1Cl (mixture of isomers) [Example 704, trans-2-(4-((5-(3-(((S)-1-(1H-tetrazol-1-yl)propan-2-yl)oxy)-4-chlorophenyl)pyrimidin-2-yl)amino)-3-(trifluoromethyl)-1H-pyrazol-1-yl)cyclohexan-1-ol] | < 10 |  |  |
| Cc1ncc(N2CC(O)C2)cc1Nc1ncc(-c2ccc(Cl)c(O[C@@H](C)Cn3cnnn3)c2)cn1 [Example 523, (S)-1-(5-((5-(3-((1-(1H-tetrazol-1-yl)propan-2-yl)oxy)-4-chlorophenyl)pyrimidin-2-yl)amino)-6-methylpyridin-3-yl)azetidin-3-ol] |  |  | IC50 [3]: 10 to 100 nM |
| COc1cc2c(cc1Nc1ncc(-c3ccc(Cl)c(O[C@@H](C)Cn4cnnn4)c3)cn1)CCN(C(=O)CN1CCOCC1)C2 [Example 470, (S)-1-(6-((5-(3-((1-(1H-tetrazol-1-yl)propan-2-yl)oxy)-4-chlorophenyl)pyrimidin-2-yl)amino)-7-methoxy-3,4-dihydroisoquinolin-2(1H)-yl)-2-morpholinoethan-1-one] |  |  | IC50 [3]: < 10 nM |
| C[C@H](O)Cn1cc(Nc2ncc(-c3ccc(Cl)c(O[C@@H](C)Cn4cnnn4)c3)cn2)c(OCC(F)(F)F)n1 [Example 833, (S)-1-(4-((5-(3-(((S)-1-(1H-tetrazol-1-yl)propan-2-yl)oxy)-4-chlorophenyl)pyrimidin-2-yl)amino)-3-(2,2,2-trifluoroethoxy)-1H-pyrazol-1-yl)propan-2-ol] |  | < 10 |  |
| C[C@@H](Cn1cnnn1)Oc1cc(-c2cnc(Nc3cn(C4CCN(C5CCC5)CC4)nc3OCCF)nc2)ccc1Cl [Example 826, (S)-5-(3-((1-(1H-tetrazol-1-yl)propan-2-yl)oxy)-4-chlorophenyl)-N-(1-(1-cyclobutylpiperidin-4-yl)-3-(2-fluoroethoxy)-1H-pyrazol-4-yl)pyrimidin-2-amine] |  | < 10 |  |
| COc1cc2c(cc1Nc1ncc(-c3ccc(Cl)c(O[C@@H](C)Cn4cnnn4)c3)cn1)CCN(CC1COC1)C2 [Example 475, (S)-N-(5-(3-((1-(1H-tetrazol-1-yl)propan-2-yl)oxy)-4-chlorophenyl)pyrimidin-2-yl)-7-methoxy-2-(oxetan-3-ylmethyl)-1,2,3,4-tetrahydroisoquinolin-6-amine] |  |  | IC50 [3]: < 10 nM |
| C[C@@H](Cn1cnnn1)Oc1cc(-c2cnc(Nc3cn([C@@H]4C[C@H]5CC[C@@H](C4)N5C(=O)OC(C)(C)C)nc3C(F)(F)F)nc2)ccc1Cl [Example 701, tert-butyl (1R,3s,5S)-3-(4-((5-(3-(((S)-1-(1H-tetrazol-1-yl)propan-2-yl)oxy)-4-chlorophenyl)pyrimidin-2-yl)amino)-3-(trifluoromethyl)-1H-pyrazol-1-yl)-8-azabicyclo[3.2.1]octane-8-carboxylate] | ≥ 100 |  |  |
| COc1cc(N2CCN(C3CCOC3)CC2)ncc1Nc1ncc(-c2ccc(Cl)c(O[C@@H](C)Cn3cnnn3)c2)cn1 (stereo partly drawn) [Example 651, 5-(3-(((S)-1-(1H-tetrazol-1-yl)propan-2-yl)oxy)-4-chlorophenyl)-N-(4-methoxy-6-(4-(tetrahydrofuran-3-yl)piperazin-1-yl)pyridin-3-yl)pyrimidin-2-amine] | 10 to 100 |  |  |
| C[C@@H](Cn1cnnn1)Oc1cc(-c2cnc(Nc3cnn(CC4CC4)c3)nc2)ccc1Cl [Example 725, (S)-5-(3-((1-(1H-tetrazol-1-yl)propan-2-yl)oxy)-4-chlorophenyl)-N-(1-(cyclopropylmethyl)-1H-pyrazol-4-yl)pyrimidin-2-amine] | 10 to 100 |  |  |
| C[C@@H](Cn1cnnn1)Oc1cc(-c2cnc(Nc3cc(C(C)(C)C)nn3C)nc2)ccc1Cl [Example 740, (S)-5-(3-((1-(1H-tetrazol-1-yl)propan-2-yl)oxy)-4-chlorophenyl)-N-(3-(tert-butyl)-1-methyl-1H-pyrazol-5-yl)pyrimidin-2-amine] |  | ≥ 100 |  |
| C[C@@H](Cn1cnnn1)Oc1cc(-c2cnc(Nc3cn(C4CCN(C5COC5)C4)nc3C(F)(F)F)nc2)ccc1Cl (stereo partly drawn) [Example 619, 5-(3-(((S)-1-(1H-tetrazol-1-yl)propan-2-yl)oxy)-4-chlorophenyl)-N-(1-(1-(oxetan-3-yl)pyrrolidin-3-yl)-3-(trifluoromethyl)-1H-pyrazol-4-yl)pyrimidin-2-amine] | 10 to 100 |  |  |
